Laboratory results as given in paper PMC5356633, “Arctigenin functions as a selective agonist of estrogen receptor β to restrict mTORC1 activation and consequent Th17 differentiation” (Oncotarget, 2016).

Target: T1, ERβ (estrogen receptor β) (Homo sapiens, UniProt Q92731)
T1 construct: gene ESR2; full-length ERβ
Assay: fluorescence polarization competition binding (PolarScreen ERβ Competitor Assay, Fluormone Tracer)

T1 sequence (Q92731 whole entry): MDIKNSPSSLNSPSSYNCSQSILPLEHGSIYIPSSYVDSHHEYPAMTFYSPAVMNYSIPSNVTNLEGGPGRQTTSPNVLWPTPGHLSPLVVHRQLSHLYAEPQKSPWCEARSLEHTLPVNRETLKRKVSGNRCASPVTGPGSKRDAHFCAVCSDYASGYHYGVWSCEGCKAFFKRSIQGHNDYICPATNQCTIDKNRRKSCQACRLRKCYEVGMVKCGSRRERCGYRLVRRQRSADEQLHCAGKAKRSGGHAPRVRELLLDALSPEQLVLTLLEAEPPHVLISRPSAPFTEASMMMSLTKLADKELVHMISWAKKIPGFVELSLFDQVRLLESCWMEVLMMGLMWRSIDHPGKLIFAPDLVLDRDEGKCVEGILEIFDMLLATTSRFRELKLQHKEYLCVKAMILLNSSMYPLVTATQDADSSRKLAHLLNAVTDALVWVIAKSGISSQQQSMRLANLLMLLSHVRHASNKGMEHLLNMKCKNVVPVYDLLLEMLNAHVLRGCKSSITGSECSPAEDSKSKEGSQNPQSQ

- IC50: 3.29 µM
SMILES: COc1cc(C[C@H]2C(=O)OC[C@@H]2Cc2ccc(OC)c(OC)c2)ccc1O [ARCG, arctigenin]
